# From ChEMBL document CHEMBL5244260, “Aldose reductase and protein tyrosine phosphatase 1B inhibitors as a promising therapeutic approach for diabetes mellitus” (Eur J Med Chem, 2020)
# Tested on: not listed separately
# Assay: Inhibition of ALR2 in calf lens using D,L-glyceraldehyde as substrate in presence of NADPH by spectrophotometric assay
# Assay type: tissue-based, Bos taurus
row,IC50,SMILES
1,4.25 µM,COc1cccc2c1C=CC1CC(=O)N(C/C=C/C(=O)O)N=C21 (centres undefined)
2,0.58 µM,O=[N+]([O-])c1ccccc1Sc1ccc(O)cc1
3,10 µM,O=C(O)CCCCCO/N=C(\c1ccnnc1)c1cccc(C(F)(F)F)c1
4,3.9 µM,COc1cccc2c1C=CC1CC(=O)N(/C=C/CC(=O)O)N=C21 (centres undefined)
5,12 µM,O=C(O)CCCCO/N=C(\c1cccc(C(F)(F)F)c1)c1ccncn1

# Molecular target: T1, Tyrosine-protein phosphatase non-receptor type 1 (Homo sapiens, UniProt P18031)
# T1 sequence (P18031 whole entry): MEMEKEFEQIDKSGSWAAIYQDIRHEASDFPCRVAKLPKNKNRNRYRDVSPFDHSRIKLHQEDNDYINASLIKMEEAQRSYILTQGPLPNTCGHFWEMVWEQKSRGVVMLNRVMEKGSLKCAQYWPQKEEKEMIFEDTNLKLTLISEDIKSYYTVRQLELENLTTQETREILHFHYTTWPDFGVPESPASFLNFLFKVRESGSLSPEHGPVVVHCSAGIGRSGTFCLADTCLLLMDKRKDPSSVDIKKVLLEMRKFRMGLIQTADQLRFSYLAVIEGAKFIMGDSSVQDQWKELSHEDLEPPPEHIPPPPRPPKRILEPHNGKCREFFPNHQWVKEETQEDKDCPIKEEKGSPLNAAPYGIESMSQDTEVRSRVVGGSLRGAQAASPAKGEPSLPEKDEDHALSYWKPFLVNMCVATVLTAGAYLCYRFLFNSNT
# Assay: Inhibition of PTP1B (unknown origin) using OMFP as substrate by fluorescence assay
row,IC50,SMILES
1,0.5 µM,CCc1cc(Br)ccc1S(=O)(=O)N(Cc1ccc(C(=O)C(F)(F)P(=O)(O)O)cc1)Cc1ccc(C(=O)C(F)(F)P(=O)(O)O)cc1
2,0.5 µM,O=C(c1ccc(CN(Cc2ccc(C(=O)C(F)(F)P(=O)(O)O)cc2)S(=O)(=O)c2ccc(Br)cc2OC(F)(F)F)cc1)C(F)(F)P(=O)(O)O
3,0.5 µM,Cc1ccc(S(=O)(=O)N(Cc2ccc(C(=O)C(F)(F)P(=O)(O)O)cc2)Cc2ccc(C(=O)C(F)(F)P(=O)(O)O)cc2)cc1
4,0.5 µM,O=C(c1ccc(CN(Cc2ccc(C(=O)C(F)(F)P(=O)(O)O)cc2)S(=O)(=O)c2cc(F)ccc2F)cc1)C(F)(F)P(=O)(O)O

# Molecular target: T1, Tyrosine-protein phosphatase non-receptor type 1
# Assay: Inhibition of PTP1B (unknown origin)
row,SMILES,IC50
1,CCCCCCCC/C(=C\Cn1oc(=O)[nH]c1=O)c1cccc(OCc2nc(-c3ccc(C(F)(F)F)cc3)oc2C)c1,0.4 µM
2,CC(C)(C)OC(=O)COc1ccc(CC2=C(c3c[nH]c4ccccc34)c3ccccc3C(=O)C2=O)cc1,0.65 µM
3,O=[N+]([O-])c1cc(S(=O)(=O)C(F)(F)F)ccc1Oc1ccc(S(=O)(=O)c2ccc(Oc3ccc(S(=O)(=O)C(F)(F)F)cc3[N+](=O)[O-])cc2)cc1,0.4 µM
4,C/C(=C\Cn1oc(=O)[nH]c1=O)c1cccc(OCc2nc(-c3ccc(C(F)(F)F)cc3)oc2-c2ccccc2)c1,0.3 µM
5,CCCCCCCC/C(=C/Cn1oc(=O)[nH]c1=O)c1cccc(OCc2nc(-c3ccc(C(F)(F)F)cc3)oc2C)c1,0.2 µM
6,Oc1c(Br)cc(-c2ncc(-c3ccccc3)s2)c(Br)c1O,0.54 µM

# Continued, values first:
row,IC50,SMILES
1,0.16 µM,CCCCCCCC/C(=C\Cn1oc(=O)n(CC(=O)O)c1=O)c1cccc(OCc2nc(-c3ccc(C(F)(F)F)cc3)oc2C)c1
2,0.2 µM,O=C(O)C(=O)c1sc2c(c1C(=O)O)CCN[C@@H]2CNCc1ccc(O)cc1
3,0.87 µM,CCCCCNC(=O)[C@H](Cc1cccc(OCC(=O)O)c1C(=O)O)NC(=O)[C@H](Cc1ccccc1)NC(=O)Oc1ccccc1
4,0.106 µM,CCCCCCCCCCCCCCOc1ccccc1NC(=O)c1cccc(F)c1C(=O)O
5,0.14 µM,CCCCCCCCCCCCCCCCOc1ccccc1NC(=O)c1ncccc1C(=O)O
6,0.077 µM,CCc1cc(CC(NC(C)=O)C(=O)NCCCCC(=O)N[C@@H](CCSC)C(=O)O)ccc1N(C(=O)C(=O)O)c1ccccc1C(=O)O (some centres undefined)
7,0.12 µM,CCCCCCCC/C(=C/Cn1oc(=O)n(CC(=O)O)c1=O)c1cccc(OCc2nc(-c3ccc(C(F)(F)F)cc3)oc2C)c1
8,0.09 µM,CCCCCCCCc1ccc(-n2c(C)ccc2-c2ccc(O[C@@H](Cc3ccccc3)C(=O)O)cc2)cc1
9,0.18 µM,CCCCCCCCCCCCCCOc1ccccc1NC(=O)c1c(C(=O)O)cc(Cl)c(Cl)c1Cl

# Species: Homo sapiens
# Assay: Selectivity ratio of Ki for PTP1B (unknown origin) to Ki for TCPTP (unknown origin)
row,Ratio Ki,SMILES
1,2,O=C(O)C(=O)Nc1sc2c(c1C(=O)O)CCN(CCc1ccccc1)C2
2,6,CCc1cc(CC(NC(C)=O)C(=O)NCCCCOc2cc(Cl)cc(O)c2C(=O)OC)ccc1N(C(=O)C(=O)O)c1ccccc1C(=O)O (centres undefined)

# Molecular target: T1, Tyrosine-protein phosphatase non-receptor type 1
# Assay: Inhibition of human PTP1B (1 to 321 residues) expressed in Escherichia coli using FDP as substrate
row,IC50,SMILES
1,0.04 µM,O=C(Cc1ccccc1)C(Cc1ccc(C(F)(F)P(=O)(O)O)cc1)(Cc1ccc(C(F)(F)P(=O)(O)O)cc1)C(=O)Cc1ccccc1
2,0.04 µM,O=C(OCc1ccccc1)C(Cc1ccc(C(F)(F)P(=O)(O)O)cc1)(Cc1ccc(C(F)(F)P(=O)(O)O)cc1)C(=O)OCc1ccccc1
3,0.04 µM,CC(C)OC(=O)C(Cc1ccc(C(F)(F)P(=O)(O)O)cc1)(Cc1ccc(C(F)(F)P(=O)(O)O)cc1)C(=O)OC(C)C
4,0.04 µM,COC(=O)C(Cc1ccc(C(F)(F)P(=O)(O)O)cc1)(Cc1ccc(C(F)(F)P(=O)(O)O)cc1)C(=O)OCc1ccccc1

# Species: Homo sapiens
# Assay: Selectivity ratio of IC50 for human PTP1B (1 to 321 residues) to IC50 for human CD45 (564 to […] residues)
row,Ratio IC50,SMILES
1,250,O=C(Cc1ccccc1)C(Cc1ccc(C(F)(F)P(=O)(O)O)cc1)(Cc1ccc(C(F)(F)P(=O)(O)O)cc1)C(=O)Cc1ccccc1
2,250,O=C(OCc1ccccc1)C(Cc1ccc(C(F)(F)P(=O)(O)O)cc1)(Cc1ccc(C(F)(F)P(=O)(O)O)cc1)C(=O)OCc1ccccc1
3,250,CC(C)OC(=O)C(Cc1ccc(C(F)(F)P(=O)(O)O)cc1)(Cc1ccc(C(F)(F)P(=O)(O)O)cc1)C(=O)OC(C)C
4,250,COC(=O)C(Cc1ccc(C(F)(F)P(=O)(O)O)cc1)(Cc1ccc(C(F)(F)P(=O)(O)O)cc1)C(=O)OCc1ccccc1
